{
  "source": "paper PMC8632000",
  "about": "(Frontiers in Pharmacology, 2021)",
  "key": {"[1]": {"settings": "cited from earlier work"}, "[2]": {"assay": "Population pharmacokinetic model (NONMEM) of vancomycin plasma concentration-time data in surgical patients", "method": "Only patients who underwent a major surgical procedure and were above the age of 18 years were included in the study. […] The dose selection and duration of infusion were at the discretion of the attending medical practitioners. […] Patient demographics, including age, weight, sex, type of disease, and serum creatinine (SCR) were recorded from patient files, and creatinine clearance (CRCL) was calculated using the Cockcroft and Gault equation ([Cockcroft and Gault, 1976]).\nBriefly, separation was carried out using a C18 column (125 mm × 4.6 mm, 5 µm) with UV detection at 205 nm. The mobile phase was a combination of buffer (50 mM ammonium dihydrogen phosphate) at pH 2.2 and acetonitrile (88:12 v/v). The method was linear over the concentration range of 0.25–60 mg/l.\nThe population pharmacokinetic model was developed using nonlinear mixed effect modeling (NONMEM version 7.4.4) software provided by Icon Clinical Research LLC, New York, NY, USA, along with the Perl-speaks-NONMEM (PsN) toolkit ([Lindbom et al., 2005]). The execution and management of the model as well as report generation were performed with the aid of Pirana (Certara, Princeton, NJ, USA) ([Keizer et al., 2011]). The actual process of modeling began with the development of one-compartment and two-compartment base models using the first-order conditional estimation method with interaction (FOCE-I) to obtain pharmacokinetic parameter estimates without any covariates. […] The exponential random-effect model was used to describe the between-subject variability (BSV) on pharmacokinetic (PK) parameters, while additive, proportional, and combined residual error models were tested to describe the residual error between the observed and predicted concentrations of vancomycin.\nThe influence of different covariates (age, sex, WT, SeCR, and CRCL) on CL and Vd was determined by stepwise covariate modeling (SCM) in which the covariates were included in the model by forward inclusion and backward elimination processes. […]"}, "[3]": {"settings": "median of 1,000 bootstrap estimates"}},
  "data": [
    {"smiles": "CN[C@H](CC(C)C)C(=O)N[C@H]1C(=O)N[C@@H](CC(N)=O)C(=O)N[C@H]2C(=O)N[C@H]3C(=O)N[C@H](C(=O)N[C@H](C(=O)O)c4cc(O)cc(O)c4-c4cc3ccc4O)[C@H](O)c3ccc(c(Cl)c3)Oc3cc2cc(c3O[C@@H]2O[C@H](CO)[C@@H](O)[C@H](O)[C@H]2O[C@H]2C[C@](C)(N)[C@H](O)[C@H](C)O2)Oc2ccc(cc2Cl)[C@H]1O", "note": "[Vancomycin]", "values": [
      {"measurement": "Vancomycin CL in obese patients", "setting": "[1]; obese patients, ref Blouin et al., 1982, Bauer et al., 1998, Adane et al., 2015", "result": "6.54 to 11.8", "unit": "L/h"},
      {"measurement": "Reported CL values in other studies", "setting": "[1]; ref Buelga et al., 2005, Llopis-Salvia and Jiménez-Torres, 2006, Staatz et al., Thomson et al., 2009, Tanaka et al., 2010, Udy et al., 2013, Escobar et al., 2014, Usman et al., 2018", "result": "1.08 to 2.99", "unit": "L/h"},
      {"measurement": "Vd, lower end of reported range", "setting": "[1]; ref Escobar et al., 2014", "result": 11.8, "unit": "L"},
      {"measurement": "Vd, upper end of reported range", "setting": "[1]; ref Lin et al., 2016", "result": 101, "unit": "L"},
      {"measurement": "Fraction of drug excreted via renal elimination", "setting": "[1]; ref Matzke et al., 1984, Rodvold et al., 1988, Ducharme et al., 1994", "result": "80%–90%"},
      {"measurement": "CL, bootstrap estimate", "setting": "[2]; [3]", "result": 2.46, "unit": "L/h"},
      {"measurement": "V, bootstrap estimate", "setting": "[2]; [3]", "result": 22.7, "unit": "L"},
      {"measurement": "V (volume of distribution), final estimate", "setting": "[2]; one-compartment final model, 58 patients", "result": 22.6, "unit": "L"}
    ]}
  ]
}
